Data taken from patent US20100048692A1, “Naphthofuranone Derivatives as Specific Inhibitors of Thymidylate Synthases” (priority 2006, published 2010).
In brackets after ≈: the same amount, converted by molar mass.

Key:
[1] = target: CnTS (Cryptococcus neoformans, UniProt P0CS12); assay type: biochemical
Description: (§1) Enzymatic inhibition assay: The compounds hereby analyzed were previously dissolved in DMSO. The inhibitor concentrated solution was obtained by dissolving 2 mg of compound in 1 mL of DMSO. Next, solutions thus obtained were successively preserved and the […], and the stability of their working conditions was constantly controlled. The spectrophotometrical determinations of enzymatic reaction kinetics were carried out using a Parkin-Elmer λ16 spectrophotometer, provided with a multicell system which was maintained at the constant temperature of 20 C. degrees, with a HAAAKE F3C thermostatted bath.
(§2) The elaboration of the data was carried out using Kaleidagraph 3.0; this software was provided by Macintosh (Adelbeck, Software Reading, Pa., 1989, version 2.3). The measurement of Ki (inhibition constant) was obtained through enzymatic inhibition essays carried out under stationary conditions. […] The enzyme is added finally. The assay aiming at controlling TS enzymatic activity is repeated at regular intervals. […] In this case inhibition constants were obtained through a non-linear regression analysis, which utilized of the least squared method, of the enzymatic reaction initial speeds relating to the inhibitor concentration; equation was the following:
Vi=Vmax*(1−([I])/([I]+(Ki*(1+([s]/Km))))), where
Vi=enzymatic reaction initial velocity, Vmax=enzymatic reaction maximum velocity, I=inhibitor concentration, Ki=inhibition constant, S=substrate concentration, Km=Michaelis-Menten.
Using this equation it is possible to obtain Ki making use of a minimal amount of experimental data. The specificity index relating to each of the compounds (Bio. Med. Chem. ) refers to the relation between KihTS/Kiother enzyme.

[2] = target: T1, hDHFR (human DHFR) (Homo sapiens, UniProt P00374); assay: Enzymatic inhibition assay (Ki), human DHFR; assay type: biochemical
T1 construct: made in house; host or cells: Escherichia coli chi2913
T1 sequence (P00374 1-187): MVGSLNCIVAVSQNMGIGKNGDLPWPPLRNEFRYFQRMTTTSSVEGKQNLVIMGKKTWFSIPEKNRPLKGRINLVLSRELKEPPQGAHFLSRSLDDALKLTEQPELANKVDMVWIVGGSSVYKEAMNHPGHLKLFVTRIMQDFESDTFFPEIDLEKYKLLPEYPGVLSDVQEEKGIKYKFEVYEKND
Description: The purified enzyme has been stored at −80° C. […] The enzymatic assays for the measurements of the Km consist in measuring the initial rate of the enzymatic reaction in presence of variable and increasing substrate (FAH2).
as §1
as §2, with “The” for “The elaboration of the data was carried out using Kaleidagraph 3.0; this software was provided by Macintosh (Adelbeck, Software Reading, Pa., 1989, version 2.3). The”, “following: […]” for “following:”

[3] = system: Citrobacter 224; assay: Sensitivity assay (MIC); assay type: cell-based
Description: (§3) The anti-bacterial properties of the compounds hereby described were evaluated towards: a) bacterial native strains comprehending gram-positive and gram-negative bacteria. The bacterial cultures were obtained by sowing bacteria in Mueller-Hinton (Difco) stirring at 37 C for 24 hours, and were then diluted, after reaching an appreciable level of exponential growth, using a growth plot in order to get a […] CFU/mL inoculum. Following, the obtained cultures were put in contact with growing concentrations of the present compound. Furthermore, it was measured the minimal concentration inhibiting the growth (MIC) of each of these compounds. In Table 2 several MIC obtained by different bacterial pathogenic strains have been reported that were treated using compounds of the present invention and were also compared with those obtained through ciprofluoxacin (cpx).

[4] = system: Enterococcus faecalis ATCCC 29212; assay: Sensitivity assay (MIC); assay type: cell-based
Description: as §3

[5] = system: Escherichia coli 256; assay: Sensitivity assay (MIC); assay type: cell-based
Description: as §3

[6] = system: Escherichia coli 292; assay: Sensitivity assay (MIC); assay type: cell-based
Description: as §3

[7] = system: Listeria monocytogenes 3; assay: Sensitivity assay (MIC); assay type: cell-based
Description: as §3

[8] = system: Listeria monocytogenes 4; assay: Sensitivity assay (MIC); assay type: cell-based
Description: as §3

[9] = system: Listeria monocytogenes 5; assay: Sensitivity assay (MIC); assay type: cell-based
Description: as §3

[10] = system: Listeria monocytogenes 6; assay: Sensitivity assay (MIC); assay type: cell-based
Description: as §3

[11] = system: Listeria monocytogenes 7; assay: Sensitivity assay (MIC); assay type: cell-based
Description: as §3

[12] = system: Listeria monocytogenes 8; assay: Sensitivity assay (MIC); assay type: cell-based
Description: as §3

[13] = system: Listeria monocytogenes ATCC 4428; assay: Sensitivity assay (MIC); assay type: cell-based
Description: as §3

[14] = system: Staphylococcus aureus 341; assay: Sensitivity assay (MIC); assay type: cell-based
Description: as §3

[15] = system: Staphylococcus aureus 343; assay: Sensitivity assay (MIC); assay type: cell-based
Description: as §3

[16] = system: Staphylococcus aureus ATCC29213; assay: Sensitivity assay (MIC); assay type: cell-based
Description: as §3

[17] = system: Staphylococcus aureus K28; assay: Sensitivity assay (MIC); assay type: cell-based
Description: as §3

[18] = system: Staphylococcus haemolyticus ATCC 2997; assay: Sensitivity assay (MIC); assay type: cell-based
Description: as §3

[19] = system: Staphylococcus saprophiticus ATCC15305; assay: Sensitivity assay (MIC); assay type: cell-based
Description: as §3

[20] = system: Streptococcus 42; assay: Sensitivity assay (MIC); assay type: cell-based
Description: as §3

[21] = system: VERO cells; assay: Citotoxicity assay (MTT test on VERO cells); assay type: cell-based; conditions: for MTT test, percentage of cellular growth: VERO cells, 24-hour incubation
Description: Aiming at evaluating the citotoxicity level, the compounds included in the present invention were submitted to the MTT assay, by using VERO cells on MEM soil/ground which was previously added with […]), penicillin (1%) (50 U/ml), streptomycine (50 μg/ml) e L-glutamine (1%) according to the Ishioka method (1988). Afterwards the cultures have been observed for 2 days through microscope at indirect light, and the living cells have been quantified in a Burker camera using the Tripan blue exclusion assay.
Later several increasing concentrations of the analyzed compound were added thereto and, after a 24-hour incubation period, the mitochondrial dehydrogenase activity was measured in the living cells (MTT assay) (Mosmann, T. 1983), by using a sample of the hereof compound which had not been previously as a comparison.

[22] = system: S. epidermidis strains (multiresistant); assay: Sensitivity assay and growth curve, multiresistant S. epidermidis strains; assay type: cell-based, Staphylococcus epidermidis
Description: (§4) The bacterial cultures were obtained by sowing bacteria in Mueller-Hinton (Difco) stirring at 37 C for 24 hours, and were then diluted, after reaching an appreciable level of exponential growth, using a growth plot in order to get a […] CFU/mL inoculum.
(§5) Following, the obtained cultures were put in contact with growing concentrations of the present compound. Furthermore, it was measured the minimal concentration inhibiting the growth (MIC) of each of these compounds. In Table 2 several MIC obtained by different bacterial pathogenic strains have been reported that were treated using compounds of the present invention and were also compared with those obtained through ciprofluoxacin (cpx).

[23] = system: multiresistant strains (clinical isolates); assay: Sensitivity assay on 23 isolated multiresistant bacterial strains; assay type: cell-based; conditions: multiresistant strains taken into consideration
Description: as §4, §5

Chain of CnTS (P0CS12 whole entry): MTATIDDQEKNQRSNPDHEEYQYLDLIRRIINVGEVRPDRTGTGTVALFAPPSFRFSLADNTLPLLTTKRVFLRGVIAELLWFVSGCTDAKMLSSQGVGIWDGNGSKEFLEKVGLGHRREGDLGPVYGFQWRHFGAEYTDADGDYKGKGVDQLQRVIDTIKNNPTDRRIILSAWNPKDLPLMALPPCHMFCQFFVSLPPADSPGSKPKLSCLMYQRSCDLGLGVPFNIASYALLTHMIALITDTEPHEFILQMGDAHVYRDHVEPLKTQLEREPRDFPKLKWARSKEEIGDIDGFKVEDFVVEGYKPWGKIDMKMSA

Cc1cc(O)c(C(C)C)cc1C1(c2cc(C(C)C)c(O)cc2C)OC(=O)c2c1ccc1ccccc21 [Compound 2, 33,3-Bis-(4-hydroxyl-5-isopropyl-2-methylphenyl)-3H-naphtho(1,2-c)furan-1-one]
Ki [1]: 0.6 µM | Ki [2]: 35 µM | SSI hTS vs hDHFR [2]: 88

O=C1OC(c2ccc(O)c(I)c2)(c2ccc(O)c(I)c2)c2ccc3ccccc3c21 [Compound 3]
Ki [1]: 4.5 µM | Ki [2]: 3.9 µM | SSI hTS vs hDHFR [2]: 0.01

O=C1OC(c2ccc(O)c(Br)c2)(c2ccc(O)c(Br)c2)c2ccc3ccccc3c21 [Compound 4]
Ki [1]: 2.7 µM | Ki [2]: 33 µM | SSI hTS vs hDHFR [2]: 0.2

O=C1OC(c2cc(Br)c(O)c(Br)c2)(c2cc(Br)c(O)c(Br)c2)c2ccc3ccccc3c21 [Compound 5, 3,3-bis-(3,5-bromo-4-hydroxyphenyl)-3H-naphtho(1,2-c)furan-1-one]
Ki [1]: 13 µM | Ki [2]: 69 µM | SSI hTS vs hDHFR [2]: 0.3 | Minimum inhibitory concentration (MIC) [3]: >25 µg/mL | Minimum inhibitory concentration (MIC) [4]: 2.5 µg/mL (≈ 3.66 µM) | Minimum inhibitory concentration (MIC) [5]: >25 µg/mL | Minimum inhibitory concentration (MIC) [6]: >25 µg/mL | Minimum inhibitory concentration (MIC) [7]: 2.5 µg/mL (≈ 3.66 µM) | Minimum inhibitory concentration (MIC) [8]: 2.5 µg/mL (≈ 3.66 µM) | Minimum inhibitory concentration (MIC) [9]: 2.5 µg/mL (≈ 3.66 µM) | Minimum inhibitory concentration (MIC) [10]: 2.5 µg/mL (≈ 3.66 µM) | Minimum inhibitory concentration (MIC) [11]: 2.5 µg/mL (≈ 3.66 µM) | Minimum inhibitory concentration (MIC) [12]: 2.5 µg/mL (≈ 3.66 µM) | Minimum inhibitory concentration (MIC) [13]: 2.5 µg/mL (≈ 3.66 µM) | Minimum inhibitory concentration (MIC) [14]: 2.5 µg/mL (≈ 3.66 µM) | Minimum inhibitory concentration (MIC) [15]: 2.5 µg/mL (≈ 3.66 µM) | Minimum inhibitory concentration (MIC) [16]: 2.5 µg/mL (≈ 3.66 µM) | Minimum inhibitory concentration (MIC) [17]: 2.5 µg/mL (≈ 3.66 µM) | Minimum inhibitory concentration (MIC) [18]: 2.5 µg/mL (≈ 3.66 µM) | Minimum inhibitory concentration (MIC) [19]: 1 µg/mL (≈ 1.46 µM) | Minimum inhibitory concentration (MIC) [20]: 2.5 µg/mL (≈ 3.66 µM) | citotoxicity ([21]; 1 mg/L, VERO cells (Table 3)): not to be citotoxic | MTT test, percentage of cellular growth ([21]; 1.56 mg/L): 100 percentage | MTT test, percentage of cellular growth ([21]; 3.12 mg/L): 100 percentage | MTT test, percentage of cellular growth ([21]; 6.25 mg/L): 100 percentage | MTT test, percentage of cellular growth ([21]; 12.05 mg/L): 100 percentage | MTT test, percentage of cellular growth ([21]; 25 mg/L): 100 percentage | MTT test, percentage of cellular growth ([21]; 50 mg/L): >100 percentage | inhibitory effect on S. epidermidis growth (FIG. 1) ([22]; 0.1 mg/L): No inhibitory effect | antibacterial activity on S. epidermidis growth (FIG. 1) ([22]; 0.5 mg/L, after a 8 hours period): antibacterial activity becomes evident | antibacterial effect on S. epidermidis growth (FIG. 1) ([22]; 1 mg/L): best result | concentration to which the strain is sensitive ([22]; S. epidemidis strain resistant to 17 antibiotics): 0.5 mg/L | lowest MIC on S. epidermidis strains ([22]; multiresistant S. epidermidis strains): 0.5 to 1 µg/mL | activity on multiresistant strains [23]: active on the major part of the multiresistant strains

O=C1OC(c2ccc(O)cc2)(c2ccc(O)cc2)c2ccc3ccccc3c21 [Compound 6, 3,3-Bis-(4-hydroxyphenyl)-1H-naphtho[1,2-c]furan-3-one]
Ki [2]: 13 µM

O=C1OC(c2ccc(O)c(Cl)c2)(c2ccc(O)c(Cl)c2)c2ccc3ccccc3c21 [Compound 7, 3,3-Bis-(3-chlorine-4-hydroxyphenyl)1H-naphtho(1,2-c)furan-3-one]
Ki [1]: 8.1 µM | SSI hTS vs hDHFR [2]: 1

O=C1OC(c2ccc(O)c(F)c2)(c2ccc(O)c(F)c2)c2ccc3ccccc3c21 [Compound 8, 3,3-Bis-(3-fluorine-4-hydroxyphenyl)1H-naphtho(1,2-c)furan-3-one]
Ki [1]: 3.5 µM | Ki [2]: 109 µM | SSI hTS vs hDHFR [2]: 1 | Minimum inhibitory concentration (MIC) [3]: >50 µg/mL | Minimum inhibitory concentration (MIC) [4]: 25 µg/mL (≈ 61.8 µM) | Minimum inhibitory concentration (MIC) [5]: >50 µg/mL | Minimum inhibitory concentration (MIC) [6]: >50 µg/mL | Minimum inhibitory concentration (MIC) [7]: 25 µg/mL (≈ 61.8 µM) | Minimum inhibitory concentration (MIC) [8]: 25 µg/mL (≈ 61.8 µM) | Minimum inhibitory concentration (MIC) [9]: 25 µg/mL (≈ 61.8 µM) | Minimum inhibitory concentration (MIC) [10]: 25 µg/mL (≈ 61.8 µM) | Minimum inhibitory concentration (MIC) [11]: 25 µg/mL (≈ 61.8 µM) | Minimum inhibitory concentration (MIC) [12]: 25 µg/mL (≈ 61.8 µM) | Minimum inhibitory concentration (MIC) [13]: 25 µg/mL (≈ 61.8 µM) | Minimum inhibitory concentration (MIC) [14]: 25 µg/mL (≈ 61.8 µM) | Minimum inhibitory concentration (MIC) [15]: 25 µg/mL (≈ 61.8 µM) | Minimum inhibitory concentration (MIC) [16]: 25 µg/mL (≈ 61.8 µM) | Minimum inhibitory concentration (MIC) [17]: 25 µg/mL (≈ 61.8 µM) | Minimum inhibitory concentration (MIC) [18]: 25 µg/mL (≈ 61.8 µM) | Minimum inhibitory concentration (MIC) [19]: 25 µg/mL (≈ 61.8 µM) | Minimum inhibitory concentration (MIC) [20]: 25 µg/mL (≈ 61.8 µM)

O=C(O)c1cn(C2CC2)c2cc(N3CCNCC3)c(F)cc2c1=O [cpx, ciprofluoxacin, reference compound]
Minimum inhibitory concentration (MIC) [3]: >25 µg/mL | Minimum inhibitory concentration (MIC) [4]: 12.5 µg/mL (≈ 37.7 µM) | Minimum inhibitory concentration (MIC) [5]: >25 µg/mL | Minimum inhibitory concentration (MIC) [6]: >25 µg/mL | Minimum inhibitory concentration (MIC) [7]: 2.5 µg/mL (≈ 7.54 µM) | Minimum inhibitory concentration (MIC) [8]: 1 µg/mL (≈ 3.02 µM) | Minimum inhibitory concentration (MIC) [9]: 2.5 µg/mL (≈ 7.54 µM) | Minimum inhibitory concentration (MIC) [10]: 2.5 µg/mL (≈ 7.54 µM) | Minimum inhibitory concentration (MIC) [11]: 1 µg/mL (≈ 3.02 µM) | Minimum inhibitory concentration (MIC) [12]: 1 µg/mL (≈ 3.02 µM) | Minimum inhibitory concentration (MIC) [13]: 2.5 µg/mL (≈ 7.54 µM) | Minimum inhibitory concentration (MIC) [14]: 1.2 µg/mL (≈ 3.62 µM) | Minimum inhibitory concentration (MIC) [15]: 0.5 µg/mL (≈ 1.51 µM) | Minimum inhibitory concentration (MIC) [16]: 0.5 µg/mL (≈ 1.51 µM) | Minimum inhibitory concentration (MIC) [17]: 0.5 µg/mL (≈ 1.51 µM) | Minimum inhibitory concentration (MIC) [18]: 2.5 µg/mL (≈ 7.54 µM) | Minimum inhibitory concentration (MIC) [19]: 1 µg/mL (≈ 3.02 µM) | Minimum inhibitory concentration (MIC) [20]: >5 µg/mL
